The source of these data is patent US6646137B1, “Non-peptide GnRH agents” (priority 1998, dated 2003).

Like-named read-outs stand apart in the source and are kept apart here.

The target of the experiment is T1, human GnRH receptor (Homo sapiens, UniProt P30968).
T1 construct: The cDNA for the human GnRH receptor is cloned into the plasmid expression vector, pcDNA 3; expressed in transfected cells; host or cells: HEK 293 cells, stably transfected (pcDNA 3); membrane preparation
T1 sequence (P30968 1-328): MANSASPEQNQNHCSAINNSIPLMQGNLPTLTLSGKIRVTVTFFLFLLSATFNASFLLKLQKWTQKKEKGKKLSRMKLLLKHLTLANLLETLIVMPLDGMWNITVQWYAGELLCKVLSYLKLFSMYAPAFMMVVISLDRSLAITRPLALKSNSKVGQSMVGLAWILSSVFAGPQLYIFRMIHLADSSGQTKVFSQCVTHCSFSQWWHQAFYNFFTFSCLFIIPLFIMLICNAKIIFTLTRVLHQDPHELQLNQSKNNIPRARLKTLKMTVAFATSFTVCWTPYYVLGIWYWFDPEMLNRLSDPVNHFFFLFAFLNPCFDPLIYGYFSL
The experiment can be described thus: GnRH receptor competitive radioligand binding assay (125I-GnRH-A, HEK 293 cell membranes). The conditions noted are these: compound at 10 μM. From the text: The cDNA for the human GnRH receptor is cloned into the plasmid expression vector, pcDNA 3 (In Vitrogen), and stably transfected in HEK 293 cells (a cell line developed by Dr. Stuart Sealfon, Mount Sinai Medical School, New York, N.Y.).
The human GnRH receptor (hGnRH) is cloned into pcDNA 3 (In Vitrogen), which provides high-level expression and a neomycin resistance marker. Lipofectamine (GIBCO BRL) is used to transfect HEK 293 cells with plasmid DNA. This method involves mixing the plasmid and reagent in serum-free medium, allowing DNA-liposome complexes to form, and overlaying cells with this solution. The HEK 293 cells are plated (seeded) on a 10-cm tissue culture dish at a density of 3×10^6 cells/dish the day before transfection. For each plate, 8 μg DNA plus 0.8 mL serum-free medium is mixed with 48 μL lipofectamine plus 0.8 mL serum-free medium, followed by incubation for 30 minutes at room temperature to allow DNA-liposome complexes to form. Serum-free medium is added to give a final volume of 6 mL/plate. The cells are rinsed twice with serum-free medium and overlayed with the DNA-liposome mixture. Five hours after transfection, an equal volume (6 mL) of medium containing 20% FBS (fetal bovine serum) is added. The cells are fed with fresh complete medium 18-24 hours after transfection. The cells are split 72 hours following transfection, at densities of 1:10 and 1:20. Stable tranformants are selected for by growth of the cells in antibiotic containing medium (G418, Sigma Chemical Company (also known as Geneticin)). Colonies are isolated and tested for receptor expression by radioligand binding and by measuring phosphoinositol turnover.
HEK 293 cells stably transfected with human GnRH receptors as described above are grown in MEM (minimal essential medium, available from Sigma Chemical Company) supplemented with 0.1% G418 (Sigma Chemical Company). Cells are homogenized in buffer A containing 50 mM Tris (pH 74.), 0.32M sucrose, 2 mM ethyleneglycol-bis(β-aminoethyl)-N,N,N′,N′-tetraacetic acid (EGTA), 1 mM phenylmethylsulfonyl fluoride (PMSF), 5 μg/mL aprotinen, 5 μg/mL Pepstatin A, and 1 μg/mL leupeptin. The homogenized cells are centrifuged at 4° C. at 20,000×g for 25 minutes, resuspended in buffer A, and recentrifuged at 4° C. at 20,000×g for an additional 25 minutes. Total membrane protein is determined with a BCA kit (Pierce, Rockford, Ill.). Membranes are stored at −70° C. at a final membrane protein concentration of 5 mg/mL.
The radioiodinated agonist analog of GnRH, [des-Gly^10, D-Ala^8]GnRH ethylamide (GnRH-A), is used as the labeled ligand. One μg of GnRH-A diluted in 0.1M acetic acid is added to an lodogen®-coated borosilicate glass tube pierce) containing 35 μL of 0.05M phosphate buffer (pH 7.4-7.6) and 1 mCi of Na[^125I]. The reaction mixture is vortexed and incubated for 1 minute at room temperature. After one minute, the mixture is vortexed again and allowed to incubate for an additional minute. Two mL of 0.5M acetic acid/1% BSA is added to the reaction tube, and the mixture is added to a C18 Sep-Pak cartridge. The cartridge is washed with subsequent washes of 5 mL H2O and 5 mL 0.5M acetic acid, and then eluted with 5×1 mL of 60% CH3CN/40% 0.5M acetic acid. The eluant is diluted with 3×volume of HPLC buffer A (0.1% TFA in H2O) and loaded onto a C18 column. The iodinated product is eluted over 20-25 minutes with a gradient of 25-100% CH3CN containing 0.1% TFA. The radioactive fractions (750 μL/fraction) are collected into clean polypropylene tubes containing 10 μL of 10% BSA. Fractions are assessed for biological activity by radioligand binding. Active fractions are utilized to screen the compounds for competitive binding assays.
HEK 293 cell membranes stably expressing hGnRHR (human GnRH receptors) are diluted to 0.5-1.0 mg/mL with assay buffer containing 50 mM HEPES (pH 7.4), 1 mM ethylenediarninetetraacetic acid (EDTA), 2.5 mM MgCl2, and 0.1% BSA. […]

Where [1] appears, read: average of 1st and 2nd test, read-out: Average % Remaining (percent of specific binding remaining).
The mark [2] stands for this setting: crude compounds, 125I-GnRH-A, lower value = higher inhibition, read-out: % Remaining 1st Test (percent of specific binding remaining).
Setting [3] is: crude compounds, 125I-GnRH-A, lower value = higher inhibition, read-out: % Remaining 2nd Test (percent of specific binding remaining).

Consider `CC(=O)N(Cc1cc2c(cc1C)C(C)(C)CCC2(C)C)CC1CCCC(CNC(=N)N)C1` (stereo not drawn) [Compound 57], for which the remaining activity at 10 µM was determined as 55% under setting [1], 47% under setting [2] and 63% under setting [3].

`Cc1cc2c(cc1CN(CC1CCCC(CNC(=N)N)C1)C(=O)c1ccc(Cl)nc1)C(C)(C)CCC2(C)C` (stereo not drawn) [Compound 58]: the remaining activity at 10 µM under setting [1] was 59%, the remaining activity at 10 µM under setting [2] stood at 57% and the remaining activity at 10 µM under setting [3] is 60%.

With `N=C(N)NCC1CCCC(CN(Cc2ccc(OCc3ccccc3)c(OCc3ccccc3)c2)C(=O)C2CCCCC2)C1` (stereo not drawn) [Compound 59], the remaining activity at 10 µM is, setting by setting: under setting [1], 59%; under setting [2], 57%; under setting [3], 60%.

Take `N=C(N)NCC1CCCC(CN(Cc2ccc(OCc3ccccc3)c(OCc3ccccc3)c2)C(=O)c2ccccc2)C1` (stereo not drawn) [Compound 62]: the remaining activity at 10 µM by setting is: under setting [1], 52%; under setting [2], 49%; under setting [3], 55%.

Consider `CC(=O)N(Cc1ccc(OCc2ccccc2)c(OCc2ccccc2)c1)CC1CCCC(CNC(=N)N)C1` (stereo not drawn) [Compound 63], for which the remaining activity at 10 µM under setting [1] came out at 48%, the remaining activity at 10 µM under setting [2] came out at 49% and the remaining activity at 10 µM under setting [3] is 47%.

For `N=C(N)NCC1CCCC(CN(Cc2ccc(OCc3ccccc3)c(OCc3ccccc3)c2)C(=O)c2ccc(Cl)nc2)C1` (stereo not drawn) [Compound 64], the remaining activity at 10 µM is, setting by setting: under setting [1], 49%; under setting [2], 46%; under setting [3], 51%.

Consider `N=C(N)NCC1CCCC(CN(Cc2ccc3c(c2)OCCO3)C(=O)c2cccc3ccccc23)C1` (stereo not drawn) [Compound 65], for which the remaining activity at 10 µM under setting [1] turned out to be 55%, the remaining activity at 10 µM under setting [2] was 50% and the remaining activity at 10 µM under setting [3] turned out to be 59%.

As to `N=C(N)NCC1CCCC(CN(Cc2ccc3c(c2)OCCO3)C(=O)c2ccc3ccccc3c2)C1` (stereo not drawn) [Compound 66], the remaining activity at 10 µM amounted to 54% under setting [1], 50% under setting [2] and 57% under setting [3].

With `CN(C)Cc1ccc(CN(CC2C=CCC3C4CC=CCC4OC23)C(=O)c2ccc3ccccc3c2)cc1` (stereo not drawn) [Compound 68], the remaining activity at 10 µM is, setting by setting: under setting [1], 48%; under setting [2], 61%; under setting [3], 44%.

With `CN(C)Cc1ccc(CN(Cc2ccc(OCc3ccccc3)c(OCc3ccccc3)c2)C(=O)c2cccs2)cc1` [Compound 69], the remaining activity at 10 µM reads like this: under setting [1], 57%; under setting [2], 59%; under setting [3], 54%.

`CN(C)Cc1ccc(CN(Cc2ccc(OCc3ccccc3)c(OCc3ccccc3)c2)C(=O)c2ccco2)cc1` [Compound 70]: the remaining activity at 10 µM runs as follows: under setting [1], 45%; under setting [2], 47%; under setting [3], 48%.

As for `CC(C)(C)c1ccc(CN(CC2CCC(CNC(=N)N)CC2)C(=O)c2ccco2)cc1` (stereo not drawn) [Compound 71], the remaining activity at 10 µM is, setting by setting: under setting [1], 60%; under setting [2], 54%; under setting [3], 65%.

Turning to `CC(C)(C)c1ccc(CN(CC2CCC(CNC(=N)N)CC2)C(=O)c2cc3ccccc3s2)cc1` (stereo not drawn) [Compound 72], the remaining activity at 10 µM under setting [1] came to 52%, the remaining activity at 10 µM under setting [2] stood at 49% and the remaining activity at 10 µM under setting [3] was 54%.

For the compound `CC(C)(C)c1ccc(CN(CC2CCC(CNC(=N)N)CC2)C(=O)C2CCCC2)cc1` (stereo not drawn) [Compound 73], the remaining activity at 10 µM by setting is: under setting [1], 58%; under setting [2], 59%; under setting [3], 57%.

In the case of `CN(C)COc1ccc(CN(CC2CCC(CNC(=N)N)CC2)C(=O)c2cc3ccccc3s2)cc1` (stereo not drawn) [Compound 74], the remaining activity at 10 µM was found to be 50% under setting [1], 51% under setting [2] and 48% under setting [3].

With `CC(=O)N(Cc1cccc(Oc2ccc(Cl)cc2)c1)CC1CCC(CNC(=N)N)CC1` (stereo not drawn) [Compound 75], the remaining activity at 10 µM by setting is: under setting [1], 59%; under setting [2], 59%; under setting [3], 58%.

As to `N=C(N)NCC1CCC(CN(Cc2cccc(Oc3ccc(Cl)cc3)c2)C(=O)c2ccc(Cl)nc2)CC1` (stereo not drawn) [Compound 76], the remaining activity at 10 µM is 60% under setting [1], 60% under setting [2] and 60% under setting [3].

In the case of `N=C(N)NCC1CCC(CN(Cc2cccc(Oc3ccc(Cl)cc3)c2)C(=O)C2CCCC2)CC1` (stereo not drawn) [Compound 77], the remaining activity at 10 µM came out at 52% under setting [1], 48% under setting [2] and 56% under setting [3].

For the compound `N=C(N)NCC1CCC(CN(CC23CC=CCC2C2CC=CCC2O3)C(=O)c2cc3ccccc3s2)CC1` (stereo not drawn) [Compound 78], the remaining activity at 10 µM worked out at 59% under setting [1], 59% under setting [2] and 58% under setting [3].

As to `Cc1cc2c(cc1CN(CC1CCC(CNC(=N)N)CC1)C(=O)c1ccc([N+](=O)[O-])o1)C(C)(C)CCC2(C)C` (stereo not drawn) [Compound 79], the remaining activity at 10 µM is, setting by setting: under setting [1], 49%; under setting [2], 50%; under setting [3], 48%.

For the compound `Cc1cc2c(cc1CN(CC1CCC(CNC(=N)N)CC1)C(=O)c1ccco1)C(C)(C)CCC2(C)C` (stereo not drawn) [Compound 80], the remaining activity at 10 µM reads like this: under setting [1], -4%; under setting [2], -4%; under setting [3], -4%.

For the compound `Cc1cc2c(cc1CN(CC1CCC(CNC(=N)N)CC1)C(=O)COCc1ccccc1)C(C)(C)CCC2(C)C` (stereo not drawn) [Compound 81], the remaining activity at 10 µM under setting [1] was found to be 27%, the remaining activity at 10 µM under setting [2] came out at 28% and the remaining activity at 10 µM under setting [3] stood at 25%.

Turning to `COCC(=O)N(Cc1cc2c(cc1C)C(C)(C)CCC2(C)C)CC1CCC(CNC(=N)N)CC1` (stereo not drawn) [Compound 82], the remaining activity at 10 µM runs as follows: under setting [1], 41%; under setting [2], 46%; under setting [3], 35%.

`CC(=O)N(Cc1cc2c(cc1C)C(C)(C)CCC2(C)C)CC1CCC(CNC(=N)N)CC1` (stereo not drawn) [Compound 83]: the remaining activity at 10 µM by setting is: under setting [1], 55%; under setting [2], 53%; under setting [3], 57%.

As to `Cc1cc2c(cc1CN(CC1CCC(CNC(=N)N)CC1)C(=O)c1ccc(Cl)nc1)C(C)(C)CCC2(C)C` (stereo not drawn) [Compound 84], the remaining activity at 10 µM reads like this: under setting [1], 48%; under setting [2], 52%; under setting [3], 44%.
